Like-named read-outs stand apart in the source and are kept apart here.
Assays:
[1] = system: norepinephrine uptake by synaptosomes from rat brain; experiment: blockage of norepinephrine uptake by synaptosomes from rat brain; format: biochemical; settings: Table 1, norepinephrine 0.48 μM
Source text: (§1) This blockade is shown both in vitro with radioactive labelled compounds to determine the amount of monoamine uptake by synaptosomes from rat brain, and in vivo by a variety of methods. Among the physiologically active monoamines whose uptake is blocked by the compounds of this invention are included serotonin, norepinephrine and dopamine (3,4-dihydroxyphenylethylamine). […] Tables 1 and 2 which follow set forth the results of some of the in vitro determinations of the blockage of monoamine uptake by the compounds of this invention. In the tables, column 1 gives the R substituent on the 3-phenylpropylamine and columns 2-4, the concentration in micrograms per ml. that blocks the uptake of a particular amine by 50 percent for the amines--norephinephrine, serotonin, and dopamine. At the head of each column is given the concentration of the particular monoamine used in the experiment.

[2] = system: serotonin uptake by synaptosomes from rat brain; experiment: blockage of serotonin uptake by synaptosomes from rat brain; format: biochemical; settings: Table 1, serotonin 0.1 μM
Source text: In the tables, column 1 gives the R substituent on the 3-phenylpropylamine and columns 2-4, the concentration in micrograms per ml. that blocks the uptake of a particular amine by 50 percent for the amines--norephinephrine, serotonin, and dopamine. At the head of each column is given the concentration of the particular monoamine used in the experiment.

[3] = system: dopamine uptake by synaptosomes from rat brain; experiment: blockage of dopamine uptake by synaptosomes from rat brain; format: biochemical; settings: Table 1, dopamine 0.2 μM
Source text: as §1

mice [4] = experiment: apomorphine hypothermia antagonism test; format: in vivo; settings: for inhibition in vivo at 0.3 mg/kg / inhibition in vivo at 1 mg/kg / inhibition in vivo at 3 mg/kg / inhibition in vivo at 10 mg/kg: Mus musculus, read-out: Percent Antagonism Apomorphine Pre-30 min.; for inhibition in vivo at 0.3 mg/kg / inhibition in vivo at 1 mg/kg / inhibition in vivo at 3 mg/kg / inhibition in vivo at 10 mg/kg / Percent Antagonism Apomorphine Pre-30 min.: mice; for antagonism of apomorphine hypothermia: in words
Procedure: (§2) The apomorphine hypothermia antagonism test is carried out as follows: mice are injected with a dose of apomorphine known to reduce body temperature approximately 4° C. The compound under test is injected 1/2 hour before the injection of the apomorphine and the temperatures measured 1/2 hour after injection. The degree of antagonism is expressed as a percent reduction (as compared with controls) of the temperature decrease produced by the injection of the apomorphine. The reserpine hypothermia reversal test is carried out as follows: groups of mice are injected with reserpine and 16.5 hours later are injected intraperitoneally with graded doses of the drug, a different dose level being given to each group of mice. Temperatures are measured at 1 hour after injection of the drug under test and again the effectiveness of the drug is expressed as a percentage decrease in the hypothermia induced by the injection of reserpine as compared with the control group. In the tables which follow, Table 4 gives the results in the apomorphine antagonism and reserpine reversal hypothermia tests for the secondary amines of this invention. In the table, the first column gives the substituent attached to the oxygen atom at the 3 position of the propylamine chain; columns 2 to 4 the percent antagonism against apomorphine hypothermia at dose levels of 0.3, 1 and 3 mg./kg. and columns 5-7 the percent reversal of reserpine hypothermia at the same dose levels.

mice [5] = experiment: reserpine hypothermia reversal test; format: in vivo; settings: for reversal of reserpine hypothermia: in words
Procedure: as §2

[6] = Table 4, mice, 1 mg./kg. intraperitoneally
[7] = Table 4, mice, 3 mg./kg. intraperitoneally
[8] = Table 5, mice, 1 mg./kg. intraperitoneally
[9] = Table 5, mice, 3 mg./kg. intraperitoneally
[10] = Table 5, mice, 10 mg./kg. intraperitoneally

Row | Compound | Concentration in mcg./ml. that blocks 50% of amine uptake, Norepinephrine [1] | Concentration in mcg./ml. that blocks 50% of amine uptake, Serotonin [2] | Concentration in mcg./ml. that blocks 50% of amine uptake, Dopamine [3] | Percent Antagonism Apomorphine Pre-30 min. (mice [4]; Table 5, 3 mg./kg.) [%] | Percent Antagonism Apomorphine Pre-30 min. (mice [4]; Table 5, 10 mg./kg.) [%] | Percent Antagonism Reserpine Post-60 min. (mice [5]; [10]) [%] | other results
1 | CN(C)CCC(Oc1ccc(F)cc1F)c1ccccc1 (centres unmarked) [2,4-difluorophenyl, N,N-dimethyl 3-(2',4'-difluorophenoxy)-3-phenylpropylamine] | .2 µg/mL | .3 µg/mL | 10 µg/mL | – | – | – | inhibition in vivo at 0.3 mg/kg (mice [4]; Table 4, 0.3 mg./kg.): 20%; inhibition in vivo at 1 mg/kg (mice [4]; Table 4, 1 mg./kg.): 53%; inhibition in vivo at 3 mg/kg (mice [4]; Table 4, 3 mg./kg.): 64%; inhibition in vivo at 1 mg/kg (mice [4]; Table 5, 1 mg./kg.): 26%; inhibition in vivo at 3 mg/kg (mice [4]; Table 5, 3 mg./kg.): 55%; inhibition in vivo at 10 mg/kg (mice [4]; Table 5, 10 mg./kg.): 98%
2 | Cc1cc(F)ccc1OC(CCN(C)C)c1ccccc1 (centres unmarked) [4-fluoro-o-tolyl, N,N-dimethyl 3-(p-fluoro-o-tolyloxy)-3-phenylpropylamine] | 2.5 µg/mL | .6 µg/mL | 40 µg/mL | – | – | – | –
3 | CN(C)CCCN1c2ccccc2CCc2ccccc21 [imipramine, reference compound] | – | – | – | – | – | – | antagonism of apomorphine hypothermia (mice [4]): active; reversal of reserpine hypothermia (mice [5]): active
4 | CNCCC(Oc1cccc(OC)c1)c1ccccc1 (centres unmarked) [m-anisyl, N-methyl 3-phenyl-3-(m-methoxyphenoxy)propylamine] | – | – | – | -7 | -5 | 5 | Percent Antagonism Apomorphine Pre-30 min. (mice [4]; Table 4, 0.3 mg./kg.): 15%; Percent Antagonism Apomorphine Pre-30 min. (mice [4]; Table 4, 1 mg./kg.): 15%; Percent Antagonism Apomorphine Pre-30 min. (mice [4]; Table 4, 3 mg./kg.): 71%; Percent Antagonism Apomorphine Pre-30 min. (mice [4]; Table 5, 1 mg./kg.): -12%; Percent Antagonism Reserpine Post-60 min. (mice [5]; Table 4, mice, 0.3 mg./kg. intraperitoneally): 8%; Percent Antagonism Reserpine Post-60 min. (mice [5]; [6]): 21%; Percent Antagonism Reserpine Post-60 min. (mice [5]; [7]): 21%; Percent Antagonism Reserpine Post-60 min. (mice [5]; [8]): -1%; Percent Antagonism Reserpine Post-60 min. (mice [5]; [9]): 6%
5 | COc1cccc(OC(CCN(C)C)c2ccccc2)c1 (centres unmarked) [m-methoxyphenyl, N,N-dimethyl 3-phenyl-3-(m-methoxyphenoxy)propylamine] | .2 µg/mL | .08 µg/mL | .5 µg/mL | – | – | – | –
6 | Cc1cccc(OC(CCN(C)C)c2ccccc2)c1 (centres unmarked) [m-tolyl, N,N-dimethyl 3-phenyl-3-(m-tolyloxy)propylamine] | 12 µg/mL | .7 µg/mL | – | – | – | – | –
7 | CN(C)CCC(Oc1cccc(C(F)(F)F)c1)c1ccccc1 (centres unmarked) [m-trifluoromethylphenyl, N,N-dimethyl 3-phenyl-3-(m-trifluoromethylphenoxy) propylamine] | 8 µg/mL | .18 µg/mL | > 100 µg/mL | – | – | – | –
8 | CNCCC=C1c2ccccc2CCc2ccccc21 [nortriptyline, reference compound] | – | – | – | – | – | – | antagonism of apomorphine hypothermia (mice [4]): active; reversal of reserpine hypothermia (mice [5]): active
9 | C=CCc1ccccc1OC(CCN(C)C)c1ccccc1 (centres unmarked) [o-allylphenyl, N,N-dimethyl 3-phenyl-3-(o-allylphenoxy)propylamine] | – | – | – | – | – | – | inhibition in vivo at 3 mg/kg (mice [4]; Table 5, 3 mg./kg.): 11%; inhibition in vivo at 10 mg/kg (mice [4]; Table 5, 10 mg./kg.): 67%
10 | CN(C)CCC(Oc1ccccc1Br)c1ccccc1 (centres unmarked) [o-bromophenyl, N,N-dimethyl 3-(o-bromophenoxy)-3-phenylpropylamine] | – | .1 µg/mL | 5 µg/mL | 40 | 47 | 30 | Percent Antagonism Apomorphine Pre-30 min. (mice [4]; Table 5, 1 mg./kg.): 19%; Percent Antagonism Reserpine Post-60 min. (mice [5]; [9]): 18%
11 | CN(C)CCC(Oc1ccccc1Cl)c1ccccc1 (centres unmarked) [o-chlorophenyl, N,N-dimethyl 3-(o-chlorophenoxy)-3-phenylpropylamine] | .45 µg/mL | .2 µg/mL | .2 µg/mL | -17 | 57 | 25 | Percent Antagonism Apomorphine Pre-30 min. (mice [4]; Table 5, 1 mg./kg.): -10%; Percent Antagonism Reserpine Post-60 min. (mice [5]; [8]): 3%; Percent Antagonism Reserpine Post-60 min. (mice [5]; [9]): 4%
12 | CCc1ccccc1OC(CCN(C)C)c1ccccc1 (centres unmarked) [o-ethylphenyl, N,N-dimethyl 3-(o-ethylphenoxy)-3-phenylpropylamine] | > 100 µg/mL | 3.5 µg/mL | > 100 µg/mL | 20 | 74 | 35 | Percent Antagonism Reserpine Post-60 min. (mice [5]; [8]): 17%; Percent Antagonism Reserpine Post-60 min. (mice [5]; [9]): 13%
13 | CN(C)CCC(Oc1ccccc1F)c1ccccc1 (centres unmarked) [o-fluorophenyl] | – | – | – | – | – | – | inhibition in vivo at 10 mg/kg (mice [4]; Table 5, 10 mg./kg.): 3%
14 | CC(C)c1ccccc1OC(CCN(C)C)c1ccccc1 (centres unmarked) [o-isopropylphenyl] | 1.5 µg/mL | > 100 µg/mL | > 100 µg/mL | – | – | – | inhibition in vivo at 1 mg/kg (mice [4]; Table 5, 1 mg./kg.): 17%; inhibition in vivo at 3 mg/kg (mice [4]; Table 5, 3 mg./kg.): 39%; inhibition in vivo at 10 mg/kg (mice [4]; Table 5, 10 mg./kg.): 65%; inhibition in vivo at 0.3 mg/kg (mice [4]; Table 5, .3 mg./kg.): 3%
15 | CCOc1ccccc1OC(CCN(C)C)c1ccccc1 (centres unmarked) [o-phenetyl, N,N-dimethyl 3-(o-ethoxyphenoxy)-3-phenylpropylamine] | 3 µg/mL | 6 µg/mL | > 100 µg/mL | 13 | 76 | 40 | Percent Antagonism Reserpine Post-60 min. (mice [5]; [9]): 16%
16 | CN(C)CCC(Oc1ccccc1C(C)(C)C)c1ccccc1 (centres unmarked) [o-t-butylphenyl, N,N-dimethyl 3-phenyl-3-(o-t-butylphenoxy)propylamine] | 1.5 µg/mL | 40 µg/mL | > 100 µg/mL | – | – | – | –
17 | CN(C)CCC(Oc1ccccc1C(F)(F)F)c1ccccc1 (centres unmarked) [o-trifluoromethylphenyl, N,N-dimethyl 3-(o-trifluoromethylphenoxy)-3-phenylpropylamine] | 70 µg/mL | .16 µg/mL | – | 32 | 55 | 10 | Percent Antagonism Apomorphine Pre-30 min. (mice [4]; Table 4, 1 mg./kg.): 13%; Percent Antagonism Apomorphine Pre-30 min. (mice [4]; Table 4, 3 mg./kg.): 28%; Percent Antagonism Apomorphine Pre-30 min. (mice [4]; Table 5, 1 mg./kg.): 21%; Percent Antagonism Reserpine Post-60 min. (mice [5]; [6]): 9%; Percent Antagonism Reserpine Post-60 min. (mice [5]; [7]): 8%
18 | COc1ccc(OC(CCN(C)C)c2ccccc2)cc1 (centres unmarked) [p-anisyl] | – | – | – | – | – | – | inhibition in vivo at 3 mg/kg (mice [4]; Table 5, 3 mg./kg.): 25%; inhibition in vivo at 3 mg/kg (mice [5]; Mus musculus, ip, 1 h, Table 5, mice, 3 mg./kg. intraperitoneally, read-out: Percent Antagonism Reserpine Post-60 min.): 67%
19 | CN(C)CCC(Oc1ccc2ccccc2c1)c1ccccc1 (stereo not drawn) [β-naphthyl, N,N-dimethyl 3-(β-naphthyloxy)-3-phenylpropylamine] | > 100 µg/mL | 1 µg/mL | > 100 µg/mL | – | – | – | –

— patent publication US4194009A, “Aryloxyphenylpropylamines for obtaining a psychotropic effect” (Eli Lilly and Company, priority 1976, dated 1980)
